Experiment [1] has as its system LXFS 573 SCLC patient-derived xenograft.
Experiment [2] concerns CD11b expression in THP-1 (AML) cells. Put plainly: LSD-1 CD11b cellular assay (flow cytometry). To be noted: Homo sapiens, THP-1, 96 h, read-out: THP-1 IC50.
Protocol: To analyze LSD-1 inhibitor efficacy in cells, a CD11b flow cytometry assay was performed. […] LSD-1 test compounds were serially diluted in DMSO. The dilutions were added to each well accordingly to a final concentration of 0.2% DMSO. The cells were incubated at 37 degrees Celsius in 5% CO2 for 4 days. 250 μL of each well was transferred to a well in a 96 well round bottom plate. The plate was centrifuged at 1200 rpm at 4 degrees Celsius in a Beckman Coulter Alegra 6KR centrifuge for 5 minutes. The media was removed leaving the cells at the bottom of the wells. The cells were washed in 100 μL cold HBSS (Hank's Balanced Salt Solution) plus 2% BSA (Bovine Serum Albumin) solution and centrifuged at 1200 rpm at 4 degrees Celsius for 5 minutes. The wash was removed. […] The cells were centrifuged and washed two times in 100 μl HBSS plus 2% BSA. After the final spin the cells were resuspended in 100 μL HBSS plus 2% BSA containing 1 μg/mL DAPI (4′,6-diamidino-2-phenylindole). The cells were then analyzed by flow cytometry in a BD FACSAria machine. Cells were analyzed for CD11b expression. The percent of CD11b expressing cells for each inhibitor concentration was used to determine an IC50 curve for each compound analyzed.
Experiment [3] has as its system Kasumi-1 AML cancer cell line. Put plainly: Kasumi-1 AML cell line proliferation assay (Cell-MTS). The conditions noted are these: Homo sapiens, 168 hours. The format is cell-based. The text has this: Colorimetric cellular assay to assess the ability of LSD-1 small molecule inhibitors to effect the proliferation of the established AML cancer cell line Kasumi-1
This Cell-MTS assay is a 7-day plate based colorimetric assay which quantifies the amount of newly generated NADH in the presence and absence of test compound. These NADH levels are used as a proxy for the quantification of cancer cell proliferation.
The established cancer cell line Kasumi-1 with a verified p53 mutation were purchased from American Type Culture Collection (ATCC) and routinely passaged according to ATCC published protocols. For routine assay these cells were seeded at a density of 20,000 cells per 96-well. […] At the end of this compound incubation period, 80 μl of media is removed and 20 μL of CellTiter 96® AQueous Non-Radioactive Cell Proliferation Assay solution (Promega) is added. The cells are incubated until the OD490 is >0.6. IC50 values are calculated using the IDBS XLfit software package and include background subtracted OD490 values and normalization to DMSO controls.

The target in another experiment is human LSD-1 (Homo sapiens (Human), UniProt O60341). The experiment can be described thus: In vitro enzyme inhibition assay LSD-1 (TR-FRET). Type of experiment: biochemical. The conditions noted are these: TR-FRET, H3K4me1-biotin labeled peptide. The text has this: This assay determines the ability of a test compound to inhibit LSD-1 demethylase activity.
The enzymatic assay of LSD-1 activity is based on Time Resolved-Fluorescence Resonance Energy Transfer (TR-FRET) detection.
A general note: Time-resolved FRET reads energy transfer from a long-lived donor to a nearby acceptor.

[4] abbreviates: Etoposide 24 mg/kg/day SC days 1-3 + vehicle.

Where two headings read alike, the source gives them in different places.

For orientation: IC50 means the concentration that inhibits the measured activity by half.

`COc1cc([C@@H]2c3cc4c(cc3[C@@H](O[C@@H]3O[C@@H]5CO[C@@H](C)O[C@H]5[C@H](O)[C@H]3O)[C@H]3COC(=O)[C@H]23)OCO4)cc(OC)c1O` [Etoposide, etoposide, reference compound]: the “% TGD” value in experiment [1] (setting [4]) is recorded as 50%; in the experiment with NCI-H1417 SCLC xenograft (24 mg/kg Etoposide SC QD x 3), 92%. Further, the figures for the “T − C” value (in experiment [1] (setting [4]); in the experiment with NCI-H1417 SCLC xenograft (24 mg/kg Etoposide SC QD x 3)) were 21 days and 24 days, respectively. Moreover, the “median TTE” value in experiment [1] (setting [4]) is 63 days; in experiment [1] (etoposide monotherapy 24 mg/kg SC), 63 days; in the experiment on NCI-H1417 SCLC xenograft (24 mg/kg Etoposide SC QD x 3), 50 days; in the experiment with NCI-H1417 SCLC xenograft (etoposide monotherapy 24 mg/kg SC QD×3) it was 50 days.

As to `COc1ccc(-c2c(-c3ccc(C#N)cc3)nc(N3CCC(N)CC3)n(C)c2=O)cn1` [Example 3, 4-[2-(4-amino-piperidin-1-yl)-5-(6-methoxy-pyridin-3-yl)-1-methyl-6-oxo-1,6-dihydro-pyrimidin-4-yl]-benzonitrile], the IC50 (in experiment [2]; in experiment [3]; against human LSD-1) was less than 0.1 µM each time.

Take `Cc1ccc(-c2c(-c3ccc(C#N)cc3)nc(N3CCC(N)CC3)n(C)c2=O)cn1` [Example 4, 4-[2-(4-amino-piperidin-1-yl)-1-methyl-5-(6-methyl-pyridin-3-yl)-6-oxo-1,6-dihydro-pyrimidin-4-yl]-benzonitrile]: the half-inhibitory concentration (IC50) in experiment [2] was less than 0.1 µM; in experiment [3], 0.1 to 1 µM; at human LSD-1, less than 0.1 µM.

For `COc1ccc(-c2c(-c3ccc(C#N)c(F)c3)nc(N3CCC(N)CC3)n(C)c2=O)cc1` [Example 6, 4-[2-(4-amino-piperidin-1-yl)-5-(4-methoxy-phenyl)-1-methyl-6-oxo-1,6-dihydro-pyrimidin-4-yl]-2-fluoro-benzonitrile], the IC50 (in experiment [2]; in experiment [3]; against human LSD-1) was less than 0.1 µM throughout.

In the case of `COc1ccc(-c2c(-c3ccc(C#N)c(F)c3)nc(N3CCC(N)CC3)n(C)c2=O)cn1` [Example 8, 4-[2-(4-amino-piperidin-1-yl)-5-(6-methoxy-pyridin-3-yl)-1-methyl-6-oxo-1,6-dihydro-pyrimidin-4-yl]-2-fluoro-benzonitrile], the IC50 (in experiment [2]; in experiment [3]; on human LSD-1) was less than 0.1 µM each time.

In the case of `Cc1ccc(-c2c(-c3ccc(C#N)c(F)c3)nc(N3CCC(N)CC3)n(C)c2=O)cn1` [Example 9], the IC50 (in experiment [2]; in experiment [3]; at human LSD-1) was less than 0.1 µM in each case.

As for `Cn1cc2cc(-c3c(-c4ccc(C#N)cc4)nc(N4CCC(N)CC4)n(C)c3=O)ccc2n1` [Example 24, 4-[2-(4-aminopiperidyl)-1-methyl-5-(2-methyl(2H-indazol-5-yl))-6-oxohydropyrimidin-4-yl]benzenecarbonitrile], the IC50 in experiment [2] and in experiment [3] was less than 0.1 µM throughout.

On to `Cn1c(N2CCC(N)CC2)nc(-c2ccc(C#N)c(F)c2)c(-c2cnn(CC(F)(F)F)c2)c1=O` [Example 34, 4-{2-(4-amino-piperidin-1-yl)-1-methyl-6-oxo-5-[1-(2,2,2-trifluoro-ethyl)-1H-pyrazol-4-yl]-1,6-dihydro-pyrimidin-4-yl}-2-fluoro-benzonitrile], for which the IC50 (in experiment [2]; in experiment [3]; on human LSD-1) was less than 0.1 µM in each case.

For `Cn1c(N2CCC(N)CC2)nc(-c2ccc(C#N)c(F)c2)c(-c2ccc3c(cnn3C)c2)c1=O` [Example 35, 4-[2-(4-amino-piperidin-1-yl)-1-methyl-5-(1-methyl-1H-indazol-5-yl)-6-oxo-1,6-dihydro-pyrimidin-4-yl]-2-fluoro-benzonitrile], the IC50 in experiment [2] and in experiment [3] was less than 0.1 µM throughout.

For `Cn1c(N2CCC(N)CC2)nc(-c2ccc(C#N)cc2)c(-c2cnn(CC(F)(F)F)c2)c1=O` [Example 36, 4-{2-(4-amino-piperidin-1-yl)-1-methyl-6-oxo-5-[1-(2,2,2-trifluoro-ethyl)-1H-pyrazol-4-yl]-1,6-dihydro-pyrimidin-4-yl}-benzonitrile], the IC50 (in experiment [2]; in experiment [3]; against human LSD-1) was less than 0.1 µM in each case.

As for `CNC1CCN(c2nc(-c3ccc(C#N)c(F)c3)c(-c3ccc4nn(C)cc4c3)c(=O)n2C)CC1` [Example 65, 2-fluoro-4-[1-methyl-2-(4-methylamino-piperidin-1-yl)-5-(2-methyl-2H-indazol-5-yl)-6-oxo-1,6-dihydro-pyrimidin-4-yl]-benzonitrile], the IC50 (in experiment [2]; in experiment [3]; at human LSD-1) was less than 0.1 µM in each case.

As to `Cn1cc2cc(-c3c(-c4ccc(C#N)c(F)c4)nc(N4CCCNCC4)n(C)c3=O)ccc2n1` [Example 66, 4-[2-[1,4]diazepan-1-yl-1-methyl-5-(2-methyl-2H-indazol-5-yl)-6-oxo-1,6-dihydro-pyrimidin-4-yl]-2-fluoro-benzonitrile], the IC50 (in experiment [2]; in experiment [3]; against human LSD-1) was less than 0.1 µM in each case.

On to `CN(C)C1CCN(c2nc(-c3ccc(C#N)c(F)c3)c(-c3ccc4nn(C)cc4c3)c(=O)n2C)CC1` [Example 71, 4-[2-(4-dimethylamino-piperidin-1-yl)-1-methyl-5-(2-methyl-2H-indazol-5-yl)-6-oxo-1,6-dihydro-pyrimidin-4-yl]-2-fluoro-benzonitrile], for which the IC50 (in experiment [2]; in experiment [3]; on human LSD-1) was less than 0.1 µM in each case.

For `Cn1c(N2CCC(N)CC2)nc(-c2ccc(C#N)c(F)c2)c(-c2ccc3[nH]ncc3c2)c1=O` [Example 88, 4-[2-(4-aminopiperidin-1-yl)-5-(1H-indazol-5-yl)-1-methyl-6-oxopyrimidin-4-yl]-2-fluorobenzonitrile], the IC50 (in experiment [2]; in experiment [3]; at human LSD-1) was less than 0.1 µM each time.

`Cn1c(N2CCC(N)CC2)nc(-c2ccc(C#N)c(F)c2)c(-c2ccc(Cl)cc2)c1=O` [Example 106, 4-[2-(4-aminopiperidin-1-yl)-5-(4-chlorophenyl)-1-methyl-6-oxopyrimidin-4-yl]-2-fluorobenzonitrile]: the IC50 (in experiment [2]; against human LSD-1) was less than 0.1 µM in each case.

`COCc1ccc(-c2c(-c3ccc(C#N)c(F)c3)nc(N3CCC(N)CC3)n(C)c2=O)cc1` [Example 107, 4-[2-(4-aminopiperidin-1-yl)-5-[4-(methoxymethyl)phenyl]-1-methyl-6-oxopyrimidin-4-yl]-2-fluorobenzonitrile]: the IC50 (in experiment [2]; on human LSD-1) was less than 0.1 µM in each case.

`COc1ccc(-c2c(-c3ccc(C#N)c(F)c3)nc(N3CCC(N)CC3)[nH]c2=O)cc1` [Example 122, 4-[2-(4-aminopiperidin-1-yl)-5-(4-methoxyphenyl)-6-oxo-1H-pyrimidin-4-yl]-2-fluorobenzonitrile]: the IC50 (in experiment [2]; against human LSD-1) was less than 0.1 µM throughout.
